Results reported in PubChem BioAssay AID1259407 (Chemical Carcinogenesis Research Information System (CCRIS), 2018).
Calls of active or inactive are those of the source. How the calls were made is not given here.

Tested on: CCRIS mutagenicity, Ames/micronucleus/aberration tests
Assay: CCRIS mutagenicity studies
[1] = Test System: AMES SALMONELLA TYPHIMURIUM, Strain/Indicator: TA98, Metabolic Activation: NONE, Method: STANDARD PLATE
[2] = Test System: AMES SALMONELLA TYPHIMURIUM, Strain/Indicator: TA100, Metabolic Activation: NONE, Method: STANDARD PLATE
[3] = Test System: AMES SALMONELLA TYPHIMURIUM, Strain/Indicator: TA1537, Metabolic Activation: NONE, Method: STANDARD PLATE

SMILES: CC(=O)CC(C)C
- mutagenic call (Test System: AMES SALMONELLA TYPHIMURIUM, Strain/Indicator: TA97, Metabolic Activation: HAMSTER, LIVER, S-9, AROCLOR 1254 (10 OR 30%), Method: PREINCUBATION): inactive; negative
- mutagenic call (Test System: AMES SALMONELLA TYPHIMURIUM, Strain/Indicator: TA97, Metabolic Activation: NONE, Method: PREINCUBATION): inactive; negative
- mutagenic call (Test System: AMES SALMONELLA TYPHIMURIUM, Strain/Indicator: TA97, Metabolic Activation: RAT, LIVER, S-9, AROCLOR 1254 (10 OR 30%), Method: PREINCUBATION): inactive; negative
- mutagenic call (Test System: AMES SALMONELLA TYPHIMURIUM, Strain/Indicator: TA98, Metabolic Activation: HAMSTER, LIVER, S-9, AROCLOR 1254 (10%), Method: PREINCUBATION): inactive; negative
- mutagenic call (Test System: AMES SALMONELLA TYPHIMURIUM, Strain/Indicator: TA98, Metabolic Activation: HAMSTER, LIVER, S-9, AROCLOR 1254 (30%), Method: PREINCUBATION): inactive; negative
- mutagenic call (Test System: AMES SALMONELLA TYPHIMURIUM, Strain/Indicator: TA98, Metabolic Activation: NONE, Method: PREINCUBATION): inactive; negative
- mutagenic call (Test System: AMES SALMONELLA TYPHIMURIUM, Strain/Indicator: TA98, Metabolic Activation: RAT, LIVER, S-9, AROCLOR 1254 (10%), Method: PREINCUBATION): inactive; negative
- mutagenic call (Test System: AMES SALMONELLA TYPHIMURIUM, Strain/Indicator: TA98, Metabolic Activation: RAT, LIVER, S-9, AROCLOR 1254 (30%), Method: PREINCUBATION): inactive; negative
- mutagenic call (Test System: AMES SALMONELLA TYPHIMURIUM, Strain/Indicator: TA98, Metabolic Activation: RAT, LIVER, S-9, AROCLOR 1254, Method: PREINCUBATION): inactive; negative
- mutagenic call (Test System: AMES SALMONELLA TYPHIMURIUM, Strain/Indicator: TA100, Metabolic Activation: HAMSTER, LIVER, S-9, AROCLOR 1254 (10%), Method: PREINCUBATION): inactive; negative
- mutagenic call (Test System: AMES SALMONELLA TYPHIMURIUM, Strain/Indicator: TA100, Metabolic Activation: HAMSTER, LIVER, S-9, AROCLOR 1254 (30%), Method: PREINCUBATION): inactive; negative
- mutagenic call (Test System: AMES SALMONELLA TYPHIMURIUM, Strain/Indicator: TA100, Metabolic Activation: NONE, Method: PREINCUBATION): inactive; negative
- mutagenic call (Test System: AMES SALMONELLA TYPHIMURIUM, Strain/Indicator: TA100, Metabolic Activation: RAT, LIVER, S-9, AROCLOR 1254 (10%), Method: PREINCUBATION): inactive; negative
- mutagenic call (Test System: AMES SALMONELLA TYPHIMURIUM, Strain/Indicator: TA100, Metabolic Activation: RAT, LIVER, S-9, AROCLOR 1254 (30%), Method: PREINCUBATION): inactive; negative
- mutagenic call (Test System: AMES SALMONELLA TYPHIMURIUM, Strain/Indicator: TA100, Metabolic Activation: RAT, LIVER, S-9, AROCLOR 1254, Method: PREINCUBATION): inactive; negative
- mutagenic call (Test System: AMES SALMONELLA TYPHIMURIUM, Strain/Indicator: TA1535, Metabolic Activation: HAMSTER, LIVER, S-9, AROCLOR 1254 (10%), Method: PREINCUBATION): inactive; negative
- mutagenic call (Test System: AMES SALMONELLA TYPHIMURIUM, Strain/Indicator: TA1535, Metabolic Activation: HAMSTER, LIVER, S-9, AROCLOR 1254 (30%), Method: PREINCUBATION): inactive; negative
- mutagenic call (Test System: AMES SALMONELLA TYPHIMURIUM, Strain/Indicator: TA1535, Metabolic Activation: NONE, Method: PREINCUBATION): inactive; negative
- mutagenic call (Test System: AMES SALMONELLA TYPHIMURIUM, Strain/Indicator: TA1535, Metabolic Activation: RAT, LIVER, S-9, AROCLOR 1254 (10%), Method: PREINCUBATION): inactive; negative
- mutagenic call (Test System: AMES SALMONELLA TYPHIMURIUM, Strain/Indicator: TA1535, Metabolic Activation: RAT, LIVER, S-9, AROCLOR 1254 (30%), Method: PREINCUBATION): inactive; negative
- mutagenic call (Test System: AMES SALMONELLA TYPHIMURIUM, Strain/Indicator: TA1535, Metabolic Activation: RAT, LIVER, S-9, AROCLOR 1254, Method: PREINCUBATION): inactive; negative
- mutagenic call (Test System: AMES SALMONELLA TYPHIMURIUM, Strain/Indicator: TA1537, Metabolic Activation: NONE, Method: PREINCUBATION): inactive; negative
- mutagenic call (Test System: AMES SALMONELLA TYPHIMURIUM, Strain/Indicator: TA1537, Metabolic Activation: RAT, LIVER, S-9, AROCLOR 1254, Method: PREINCUBATION): inactive; negative
- mutagenic call (Test System: AMES SALMONELLA TYPHIMURIUM, Strain/Indicator: TA1538, Metabolic Activation: NONE, Method: PREINCUBATION): inactive; negative
- mutagenic call (Test System: AMES SALMONELLA TYPHIMURIUM, Strain/Indicator: TA1538, Metabolic Activation: RAT, LIVER, S-9, AROCLOR 1254, Method: PREINCUBATION): inactive; negative
- mutagenic call (Test System: MOUSE LYMPHOMA, Strain/Indicator: L5178Y (TK+/TK-), Metabolic Activation: NONE, Method: SUSPENSION/PLATE): active; positive
- mutagenic call (Test System: MOUSE LYMPHOMA, Strain/Indicator: L5178Y (TK+/TK-), Metabolic Activation: RAT, LIVER, S-9, AROCLOR 1242 AND AROCLOR 1254 (2:1), Method: SUSPENSION/PLATE): inactive; negative

SMILES: Cc1ncc2c(n1)CCC2
- mutagenic call [1]: inactive; negative
- mutagenic call (Test System: AMES SALMONELLA TYPHIMURIUM, Strain/Indicator: TA98, Metabolic Activation: RAT, LIVER, S-9, Method: STANDARD PLATE): inactive; negative
- mutagenic call [2]: inactive; negative
- mutagenic call (Test System: AMES SALMONELLA TYPHIMURIUM, Strain/Indicator: TA100, Metabolic Activation: RAT, LIVER, S-9, Method: STANDARD PLATE): inactive; negative
- mutagenic call (Test System: AMES SALMONELLA TYPHIMURIUM, Strain/Indicator: TA1535, Metabolic Activation: NONE, Method: STANDARD PLATE): inactive; negative
- mutagenic call (Test System: AMES SALMONELLA TYPHIMURIUM, Strain/Indicator: TA1535, Metabolic Activation: RAT, LIVER, S-9, Method: STANDARD PLATE): inactive; negative
- mutagenic call [3]: inactive; negative
- mutagenic call (Test System: AMES SALMONELLA TYPHIMURIUM, Strain/Indicator: TA1537, Metabolic Activation: RAT, LIVER, S-9, Method: STANDARD PLATE): inactive; negative
- mutagenic call (Test System: AMES SALMONELLA TYPHIMURIUM, Strain/Indicator: TA1538, Metabolic Activation: NONE, Method: STANDARD PLATE): inactive; negative
- mutagenic call (Test System: AMES SALMONELLA TYPHIMURIUM, Strain/Indicator: TA1538, Metabolic Activation: RAT, LIVER, S-9, Method: STANDARD PLATE): inactive; negative

SMILES: FC(F)(Cl)C(F)(F)Cl
- mutagenic call (Test System: AMES SALMONELLA TYPHIMURIUM, Strain/Indicator: TA98, Metabolic Activation: NONE, Method: GAS EXPOSURE): inactive; negative
- mutagenic call (Test System: AMES SALMONELLA TYPHIMURIUM, Strain/Indicator: TA98, Metabolic Activation: RAT LIVER S-9, PHENOBARBITAL AND BETA-NAPHTHOFLAVONE (40%), Method: GAS EXPOSURE): inactive; negative
- mutagenic call (Test System: AMES SALMONELLA TYPHIMURIUM, Strain/Indicator: TA100, Metabolic Activation: NONE, Method: GAS EXPOSURE): inactive; negative
- mutagenic call (Test System: AMES SALMONELLA TYPHIMURIUM, Strain/Indicator: TA100, Metabolic Activation: RAT LIVER S-9, PHENOBARBITAL AND BETA-NAPHTHOFLAVONE (40%), Method: GAS EXPOSURE): inactive; negative
- mutagenic call (Test System: AMES SALMONELLA TYPHIMURIUM, Strain/Indicator: TA1535, Metabolic Activation: NONE, Method: GAS EXPOSURE): inactive; negative
- mutagenic call (Test System: AMES SALMONELLA TYPHIMURIUM, Strain/Indicator: TA1535, Metabolic Activation: RAT LIVER S-9, PHENOBARBITAL AND BETA-NAPHTHOFLAVONE (40%), Method: GAS EXPOSURE): inactive; negative
- mutagenic call (Test System: AMES SALMONELLA TYPHIMURIUM, Strain/Indicator: TA1537, Metabolic Activation: NONE, Method: GAS EXPOSURE): inactive; negative
- mutagenic call (Test System: AMES SALMONELLA TYPHIMURIUM, Strain/Indicator: TA1537, Metabolic Activation: RAT LIVER S-9, PHENOBARBITAL AND BETA-NAPHTHOFLAVONE (40%), Method: GAS EXPOSURE): inactive; negative
- mutagenic call (Test System: E.COLI, Strain/Indicator: WP2UVRA, Metabolic Activation: NONE, Method: GAS EXPOSURE): inactive; negative
- mutagenic call (Test System: E.COLI, Strain/Indicator: WP2UVRA, Metabolic Activation: RAT LIVER S-9, PHENOBARBITAL AND BETA-NAPHTHOFLAVONE (40%), Method: GAS EXPOSURE): inactive; negative

SMILES: O=C(CCBr)N1CCN(C(=O)CCBr)CC1
- mutagenic call [1]: inactive; negative
- mutagenic call [2]: active; positive
- mutagenic call (Test System: AMES SALMONELLA TYPHIMURIUM, Strain/Indicator: TA102, Metabolic Activation: NONE, Method: STANDARD PLATE): inactive; negative
- mutagenic call [3]: inactive; negative
- mutagenic call (Test System: E. COLI, Strain/Indicator: WP2 (HCR), Metabolic Activation: NONE, Method: STANDARD PLATE): active; positive
